Like-named read-outs stand apart in the source and are kept apart here.

Holding throughout (type): cell-based
In test [1] the target is T1, histamine H3 -receptor (Cavia porcellus, UniProt Q9JI35).
T1 construct: ileum guinea pig; from tissue; host or cells: guinea pig ileum
As to the kind of experiment: Antagonistic activity on the H3-receptor, ileum guinea pig. The protocol:
(§1) The agonistics and antagonistics activities on the H3 -receptor of the various compounds were determined compared to histamine. The test methods used therefor are described in Van der Werf et al., Agents and Actions 20, 3/4 (1987) p. 239-243 and Menkveld et al., European Journal of Pharmacology, 186 (1990) p. 343-347.

Test [2] has as its system histamine H3 -receptor. As to the kind of experiment: Antagonistic activity on the H3-receptor, test preparation not stated. Conditions: Example 6 table, test method not stated. As to the method: as §1
Test [3] has as its target T1, histamine H3 -receptor. The test can be described thus: Agonistic activity on the H3-receptor, ileum guinea pig. Conditions: Table 3, agonistic activity, read-out: pD2 (converted). As to the method:
(§2) The agonistics and antagonistics activities on the H3 -receptor of the various compounds were determined compared to histamine.

In test [4] the test system is histamine H3 -receptor. As to the kind of experiment: Agonistic activity on the H3-receptor, test preparation not stated. The following applies: in words. As to the method: as §1
For test [5], the target named is T2, histamine H3 -receptor (Rattus norvegicus, UniProt Q9QYN8).
T2 construct: Van der Werf et al., Agents and Actions 20, 3/4 (1987) p; 239-243; from tissue
T2 sequence (Q9QYN8 whole entry): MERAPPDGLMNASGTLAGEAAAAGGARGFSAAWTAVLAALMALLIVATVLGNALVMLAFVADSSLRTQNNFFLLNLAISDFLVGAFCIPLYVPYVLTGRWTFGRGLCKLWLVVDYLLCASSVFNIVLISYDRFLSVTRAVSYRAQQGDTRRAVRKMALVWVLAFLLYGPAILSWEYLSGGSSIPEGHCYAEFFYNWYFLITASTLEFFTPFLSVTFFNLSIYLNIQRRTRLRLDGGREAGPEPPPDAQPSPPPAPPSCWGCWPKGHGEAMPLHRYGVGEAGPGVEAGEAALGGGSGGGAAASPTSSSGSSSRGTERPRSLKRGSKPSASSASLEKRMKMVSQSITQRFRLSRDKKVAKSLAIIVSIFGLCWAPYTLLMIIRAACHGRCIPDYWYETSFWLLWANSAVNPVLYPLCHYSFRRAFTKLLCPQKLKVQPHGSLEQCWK
The test can be described thus: Antagonistic activity on the H3-receptor, rat cortex. Conditions: Table 2, antagonistic activity, read-out: pA2 (converted). As to the method: as §1

For test [6], the target named is T2, histamine H3 -receptor. As to the kind of experiment: Agonistic activity on the H3-receptor, rat cortex. The following applies: Table 3, agonistic activity, read-out: pD2 (converted). The protocol: as §2
Setting [7] is: Table 2, antagonistic activity, ileum guinea pig, read-out: pA2 (converted).

T1 sequence (Q9JI35 whole entry): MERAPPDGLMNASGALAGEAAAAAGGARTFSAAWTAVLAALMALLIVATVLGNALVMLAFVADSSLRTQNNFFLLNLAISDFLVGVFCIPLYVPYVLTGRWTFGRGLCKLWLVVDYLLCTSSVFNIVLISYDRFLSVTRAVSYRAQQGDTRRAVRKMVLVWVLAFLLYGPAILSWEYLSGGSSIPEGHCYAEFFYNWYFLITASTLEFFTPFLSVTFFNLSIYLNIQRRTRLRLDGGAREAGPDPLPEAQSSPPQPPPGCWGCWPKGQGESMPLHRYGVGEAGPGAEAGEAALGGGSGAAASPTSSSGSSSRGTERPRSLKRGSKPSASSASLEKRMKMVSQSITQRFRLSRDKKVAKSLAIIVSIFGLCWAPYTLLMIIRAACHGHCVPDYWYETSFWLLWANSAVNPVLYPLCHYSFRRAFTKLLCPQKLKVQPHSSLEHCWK

Regarding `NC(=NCCCCc1ccccc1)SCCCc1cnc[nH]1` [VUF 4571, S-[3-(4(5)-imidazolyl)propyl]-N-(4-phenylbutyl)isothiourea], on histamine H3 -receptor [1] (setting [7]), the Kb was 3.98 nM.
The pA2 is a measure of antagonist potency on a negative log scale. A higher pA2 goes with a more potent antagonist. As to `N=C(NCCc1ccc(Br)cc1)SCCCc1c[nH]cn1` [VUF 4598, N-[2-(4-bromophenyl)ethyl]-S-[3-(4(5)-imidazolyl)propyl] isothiourea.2HBr], the pA2 in the test with histamine H3 -receptor [2] is given as 9.0.
The compound `N=C(NCc1ccc(F)cc1)SCCCc1c[nH]cn1` [VUF 4650, N-(4-fluorobenzyl)-S-[3-(4(5)-imidazolyl)propyl]isothiourea.2HBr] came in with a pA2 in the test with histamine H3 -receptor [2] of 9.38.
For the compound `N=C(NCc1ccc(Br)cc1)SCCCc1c[nH]cn1` [VUF 4651, N-(4-bromobenzyl)-S-[3-(4(5)-imidazolyl)propyl]isothiourea.2HBr], the pA2 in the test on histamine H3 -receptor [2] amounted to 9.77.
The same measure, in the same setting: then `N=C(NCc1ccc(I)cc1)SCCCc1c[nH]cn1` [VUF 4652, N-(4-iodobenzyl)-S-[3-(4(5)-imidazolyl)propyl]isothiourea.2HBr], with 9.21; and `Cc1ccc(CNC(=N)SCCCc2c[nH]cn2)cc1` [VUF 4653, S-[3-(4(5)-imidazolyl)propyl]-N-(4-methylbenzyl) isothiourea.2HBr], with 9.36; and `COc1ccc(CNC(=N)SCCCc2c[nH]cn2)cc1` [VUF 4654], with 9.39.
Regarding `N=C(NCc1ccc(Cl)c(Cl)c1)SCCCc1c[nH]cn1` [VUF 4656, N-(3,4-dichlorobenzyl)-S-[3-(4(5)-imidazolyl)propyl] isothiourea.2HBr], the pA2 in the test with histamine H3 -receptor [2] is 8.96.
`N=C(NCCc1ccc(Cl)cc1)SCCCc1c[nH]cn1` [VUF 4657]: the pA2 in the test with histamine H3 -receptor [2] is 9.2.
In the test with histamine H3 -receptor [2], `Cc1ccc(CCNC(=N)SCCCc2c[nH]cn2)cc1` [VUF 4658, S-[3-(4(5)-imidazolyl)propyl]-N-[2-(4-methylphenyl)ethyl]isothiourea.2HBr] had a pA2 of 8.4.
The compound `COc1ccc(CCNC(=N)SCCCc2c[nH]cn2)cc1` [VUF 4659] gave a pA2 in the test on histamine H3 -receptor [2] of 8.3.
Compound `N=C(NCc1ccccc1)SCCCCc1c[nH]cn1` [VUF 4661, N-benzyl-S-[4-(4(5)-imidazolyl)butyl]isothiourea dipicrate] showed a pA2 with histamine H3 -receptor [2] of 8.72.
For the compound `N=C(NCCc1ccccc1)SCCCCc1c[nH]cn1` [VUF 4662, N-(2-phenylethyl)-S-[4-(4(5)-imidazolyl)butyl]isothiourea dipicrate], the pA2 in the test with histamine H3 -receptor [2] amounted to 8.13.
With `N=C(N)SCCc1c[nH]cn1` [VUF 8325, S-[2-(4-imidazolyl)ethyl]isothiourea], the EC50 at histamine H3 -receptor [3] was 7.94 nM. Also, in the test with histamine H3 -receptor [4], the agonistic activity result is “strong agonistic activity”.
Consider `N=C(Nc1ccccc1)SCCc1c[nH]cn1` [VUF 8397], for which the Kb at histamine H3 -receptor [5] is 100 nM.
Regarding `N=C(NCCSCc1ccccc1)SCCc1c[nH]cn1` [VUF 8404], the Kb on histamine H3 -receptor [1] is 39.8 nM.
For `N=C(NCCCc1c[nH]cn1)NCCSCc1ccccc1` [VUF 8405], the Kb on histamine H3 -receptor [1] (setting [7]) is 12.6 nM.
`N=C(NCCSC(c1ccccc1)c1ccccc1)SCCc1c[nH]cn1` [VUF 8409]: the Kb on histamine H3 -receptor [1] (setting [7]) was 251 nM.
In the case of `N=C(NCCSCc1ccccc1)SCCCc1c[nH]cn1` [VUF 8414, N-[2-(benzylthio)ethyl]-S-[3-(imidazol-4-yl)propyl]isothiourea], the Kb on histamine H3 -receptor [1] (setting [7]) was 2.51 nM.
`CNC(=N)SCCc1c[nH]cn1` [VUF 8621]: at histamine H3 -receptor [3], the EC50 was 50.1 nM.
Regarding `N=C(NCCc1c[nH]cn1)Nc1ccccc1` [VUF 9006, N-[2-(imidazol-4-yl)ethyl]-N'-phenyl guanidine dipicrate], the Kb on histamine H3 -receptor [1] (setting [7]) was 1580 nM.
For the compound `N=C(NCCc1ccccc1)NCCc1cnc[nH]1` [VUF 9007, N-[2-(imidazol-4-yl)ethyl]-N'-phenyl-ethylguanidine dipicrate], on histamine H3 -receptor [1] (setting [7]), the Kb is 501 nM.
`N=C(NCc1ccccc1)SCCc1c[nH]cn1` [VUF 9028, N-benzyl-S-[2-(imidazol-4-yl)ethyl]isothiourea dipicrate] gave a Kb at histamine H3 -receptor [1] of 15.8 nM.
In turn, `N=C(NCCc1ccccc1)SCCc1c[nH]cn1` [VUF 9029, S-[2-(imidazol-4-yl)ethyl]-N-(2-phenylethyl)-isothiourea] gave a Kb on histamine H3 -receptor [1] of 10 nM.
Consider `N=C(NCCCc1ccccc1)SCCc1c[nH]cn1` [VUF 9030], for which, at histamine H3 -receptor [1], the Kb was 25.1 nM.
Turning to `N=C(NCCCCc1ccccc1)SCCc1c[nH]cn1` [VUF 9031], the Kb at histamine H3 -receptor [1] was 20 nM.
The same measure, in the same setting: next, `CN=C(NCCc1ccccc1)SCCc1c[nH]cn1` [VUF 9051]: 15.8 nM.
`N=C(NCc1ccccc1)SCCCc1c[nH]cn1` [VUF 9107, N-benzyl-S-[3-(4(5)-imidazolyl)propyl]isothiourea] showed a Kb at histamine H3 -receptor [1] of 1.58 nM.
`N=C(NCCc1ccccc1)SCCCc1c[nH]cn1` [VUF 9151, S-[3-(4(5)-imidazolyl)propyl]-N-(2-phenylethyl)isothiourea] showed a Kb on histamine H3 -receptor [1] of 1.58 nM.
`N=C(NCCCc1ccccc1)SCCCc1c[nH]cn1` [VUF 9152, S-[3-(4(5)-imidazolyl)propyl]-N-(3-phenylpropyl)isothiourea] had a Kb on histamine H3 -receptor [1] of 5.01 nM.
At histamine H3 -receptor [1], `NC(=NCc1ccc(Cl)cc1)SCCCc1cnc[nH]1` [VUF 9153, S-[3-(4(5)-imidazolyl)propyl]-N-(4-chlorobenzyl)isothiourea] had a Kb of 0.126 nM.
With `N=C(NCC1CCCCC1)SCCCc1c[nH]cn1` [VUF 9163, N-cyclohexylmethyl-S-[3-(4(5)-imidazolyl)propyl]isothiourea], the Kb on histamine H3 -receptor [1] (setting [7]) was 1.58 nM.
For `N=C(N)NCCc1c[nH]cn1` [VUF 83100], on histamine H3 -receptor [6], the EC50 was 39.8 nM.

Values taken from patent US5837718A, “Imidazole-derivatives having agonistic or antagonistic activity on the histamine H3-receptor” (Seed Capital Investment (SCI) B.V., priority 1995, dated 1998).
